Legend:
[1] = test system: Legionella ssp.; format: cell-based
[2] = test system: Escherichia coli; experiment: germicidal testing at 0.4 ppm chlorine (Comparative Example 2); format: cell-based; settings: concentration of 0.4 ppm
[3] = test system: Staphylococcus aureus; experiment: as above; format: cell-based; settings: concentration of 0.4 ppm
[4] = time course of residual chlorine concentration in 42° C. hot water; settings: chlorine level 0.4 ppm at start

With `OCl` [Sodium hypochlorite] the germicidal activity [1] was “no germicidal activity”, the germicidal activity [2] was “no germicidal activity” and the germicidal activity [3] was “no germicidal activity”. For the same compound, the “residual concentration in the water (chlorine)” value (“residual concentration” for short) ([4]; after 30 minutes) was 0.3 ppm, the “residual concentration” value ([4]; after 60 minutes) was 0.2 ppm and the “residual concentration” value ([4]; at 90 minutes) was 0 ppm.

Source: patent US20070065519A1, “Copper ion-producing composition” (priority 2005, published 2007)
